Assay results from PubChem BioAssay (NCI).
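All cell lines were grown in 96-well plates and treated with compound for 48 hours. Abbreviation: GI50, concentration required for 50% inhibition of growth. TGI: total growth inhibition.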 Residues, ends and D or L forms follow the SMILES beside them. *: point of attachment. Boc = CC(C)(C)OC(=O)*; OBn = c1ccc(CO*)cc1

Assays:
Assay in all cases: NCI tumour cell line growth inhibition, 48 h
HCT-116 colon = system: HCT-116 colon
LOX IMVI melanoma = system: LOX IMVI melanoma
NCI-H460 lung = system: NCI-H460 lung
SF-295 CNS = system: SF-295 CNS
MALME-3M melanoma = system: MALME-3M melanoma
HS 578T breast = system: HS 578T breast
RXF 393 renal = system: RXF 393 renal
NCI/ADR-RES ovarian = system: NCI/ADR-RES ovarian
SK-MEL-2 melanoma = system: SK-MEL-2 melanoma
CCRF-CEM leukemia = system: CCRF-CEM leukemia
MOLT-4 leukemia = system: MOLT-4 leukemia
NCI-H522 lung = system: NCI-H522 lung
A549 NSCLC = system: A549 NSCLC
UACC-62 melanoma = system: UACC-62 melanoma
TK-10 renal = system: TK-10 renal
T-47D breast = system: T-47D breast
IGROV1 ovarian = system: IGROV1 ovarian
SK-MEL-5 melanoma = system: SK-MEL-5 melanoma
DU-145 prostate = system: DU-145 prostate
RPMI-8226 leukemia = system: RPMI-8226 leukemia
SR leukemia = system: SR leukemia
CAKI-1 renal = system: CAKI-1 renal
A498 renal = system: A498 renal
K-562 leukemia = system: K-562 leukemia
PC-3 prostate = system: PC-3 prostate
OVCAR-8 ovarian = system: OVCAR-8 ovarian
ACHN renal = system: ACHN renal
SN12C renal = system: SN12C renal
HCT-15 colon = system: HCT-15 colon
786-0 renal = system: 786-0 renal
UO-31 renal = system: UO-31 renal
HCC-2998 colon = system: HCC-2998 colon
NCI-H23 lung = system: NCI-H23 lung
U251 CNS = system: U251 CNS
SK-MEL-28 melanoma = system: SK-MEL-28 melanoma
M14 melanoma = system: M14 melanoma
OVCAR-5 ovarian = system: OVCAR-5 ovarian
OVCAR-4 ovarian = system: OVCAR-4 ovarian
MDA-MB-435 = system: MDA-MB-435
SK-OV-3 ovarian = system: SK-OV-3 ovarian
OVCAR-3 ovarian = system: OVCAR-3 ovarian
MCF7 breast = system: MCF7 breast
SF-268 CNS = system: SF-268 CNS
KM12 colon = system: KM12 colon
HOP-62 NSCLC = system: HOP-62 NSCLC
SNB-19 CNS = system: SNB-19 CNS
HOP-92 NSCLC = system: HOP-92 NSCLC
COLO 205 colon = system: COLO 205 colon
SNB-75 CNS = system: SNB-75 CNS
EKVX NSCLC = system: EKVX NSCLC
MDA-MB-231 breast = system: MDA-MB-231 breast
BT-549 breast = system: BT-549 breast
SF-539 CNS = system: SF-539 CNS
UACC-257 melanoma = system: UACC-257 melanoma

## Cc1ccc(N2C(=O)C(Cl)=C(Nc3cccc(O)c3)C2=O)cc1Cl
HCT-116 colon
  GI50: 13.9 µM
  TGI: 27.8 µM
LOX IMVI melanoma
  GI50: 16.4 µM
  TGI: 33.2 µM
NCI-H460 lung
  GI50: 11.6 µM
  TGI: 26.7 µM
SF-295 CNS
  GI50: 17.8 µM
  TGI: 36.5 µM
MALME-3M melanoma
  GI50: 17.2 µM
  TGI: 31.4 µM
HS 578T breast
  GI50: 17.4 µM
  TGI: 42.1 µM
RXF 393 renal
  GI50: 0.549 µM
  TGI: 22.2 µM
NCI/ADR-RES ovarian
  GI50: 21.6 µM
  TGI: 54.7 µM
SK-MEL-2 melanoma
  GI50: 38 µM
  TGI: > 100 µM
CCRF-CEM leukemia
  GI50: 18.5 µM
  TGI: 46.8 µM
MOLT-4 leukemia
  GI50: 3.13 µM
  TGI: 21.2 µM
NCI-H522 lung
  GI50: 31.8 µM
  TGI: > 100 µM
A549 NSCLC
  GI50: 12.8 µM
  TGI: 29.7 µM
UACC-62 melanoma
  GI50: 17 µM
  TGI: 32.6 µM
TK-10 renal
  GI50: 18.5 µM
  TGI: 33.4 µM
T-47D breast
  GI50: 49.6 µM
  TGI: > 100 µM
IGROV1 ovarian
  GI50: 31.5 µM
  TGI: > 100 µM
SK-MEL-5 melanoma
  GI50: 15 µM
  TGI: 28.9 µM
DU-145 prostate
  GI50: 16.9 µM
  TGI: 31.5 µM
RPMI-8226 leukemia
  GI50: 3.95 µM
  TGI: 28.6 µM
SR leukemia
  GI50: 8.06 µM
  TGI: 30.4 µM
CAKI-1 renal
  GI50: 17 µM
  TGI: 34.6 µM
A498 renal
  GI50: 12.4 µM
  TGI: 25.5 µM
K-562 leukemia
  GI50: 18.9 µM
  TGI: 52.8 µM
PC-3 prostate
  GI50: 12.5 µM
  TGI: 30.9 µM
OVCAR-8 ovarian
  GI50: 16.8 µM
  TGI: 43.5 µM
ACHN renal
  GI50: 17.5 µM
  TGI: 32.7 µM
SN12C renal
  GI50: 19.7 µM
  TGI: 44.1 µM
HCT-15 colon
  GI50: 18.6 µM
  TGI: 40.1 µM
786-0 renal
  GI50: 19.3 µM
  TGI: 52 µM
UO-31 renal
  GI50: 26.1 µM
  TGI: 75.8 µM
HCC-2998 colon
  GI50: 14.5 µM
  TGI: 29.6 µM
NCI-H23 lung
  GI50: 15.2 µM
  TGI: 30.5 µM
U251 CNS
  GI50: 15.7 µM
  TGI: 31 µM
SK-MEL-28 melanoma
  GI50: 22.4 µM
  TGI: 49.8 µM
M14 melanoma
  GI50: 17.6 µM
  TGI: 32.3 µM
OVCAR-5 ovarian
  GI50: 16.5 µM
  TGI: 31.9 µM
OVCAR-4 ovarian
  GI50: 26.9 µM
  TGI: 76.3 µM
MDA-MB-435
  GI50: 16.6 µM
  TGI: 34 µM
SK-OV-3 ovarian
  GI50: 21 µM
  TGI: 44.2 µM
OVCAR-3 ovarian
  GI50: 15.3 µM
  TGI: 28.9 µM
MCF7 breast
  GI50: 6.16 µM
  TGI: 32 µM
SF-268 CNS
  GI50: 18.3 µM
  TGI: 37.2 µM
KM12 colon
  GI50: 17 µM
  TGI: 31.6 µM
HOP-62 NSCLC
  GI50: 17.7 µM
  TGI: 36.3 µM
SNB-19 CNS
  GI50: 23.3 µM
  TGI: 65.5 µM
HOP-92 NSCLC
  GI50: 15.7 µM
  TGI: 37.6 µM
COLO 205 colon
  GI50: 26.4 µM
  TGI: 73 µM

## CCCCNC(=S)Nc1nc(C(=O)NNS(=O)(=O)c2ccccc2)cs1
HCT-116 colon
  TGI: 69.5 µM
LOX IMVI melanoma
  TGI: 39.2 µM
SF-295 CNS
  TGI: > 100 µM
MALME-3M melanoma
  TGI: > 100 µM
SNB-75 CNS
  TGI: 76.6 µM
NCI/ADR-RES ovarian
  TGI: > 100 µM
SK-MEL-2 melanoma
  TGI: 43.8 µM
CCRF-CEM leukemia
  TGI: > 100 µM
MOLT-4 leukemia
  TGI: > 100 µM
NCI-H522 lung
  TGI: > 100 µM
A549 NSCLC
  TGI: > 100 µM
UACC-62 melanoma
  TGI: 59.2 µM
TK-10 renal
  TGI: 99.9 µM
T-47D breast
  TGI: > 100 µM
IGROV1 ovarian
  TGI: > 100 µM
SK-MEL-5 melanoma
  TGI: 31 µM
DU-145 prostate
  TGI: > 100 µM
RPMI-8226 leukemia
  TGI: > 100 µM
SR leukemia
  TGI: > 100 µM
CAKI-1 renal
  TGI: 69.5 µM
A498 renal
  TGI: > 100 µM
EKVX NSCLC
  TGI: > 100 µM
K-562 leukemia
  TGI: > 100 µM
PC-3 prostate
  TGI: 93.1 µM
OVCAR-8 ovarian
  TGI: > 100 µM
MDA-MB-231 breast
  TGI: 68.8 µM
ACHN renal
  TGI: 85.5 µM
BT-549 breast
  TGI: 70.8 µM
SN12C renal
  TGI: 62.5 µM
HCT-15 colon
  TGI: > 100 µM
SF-539 CNS
  TGI: > 100 µM
786-0 renal
  TGI: > 100 µM
UO-31 renal
  TGI: 85.3 µM
HCC-2998 colon
  TGI: 97.7 µM
NCI-H23 lung
  TGI: > 100 µM
U251 CNS
  TGI: > 100 µM
M14 melanoma
  TGI: > 100 µM
OVCAR-5 ovarian
  TGI: > 100 µM
MDA-MB-435
  TGI: 48.4 µM
SK-OV-3 ovarian
  TGI: > 100 µM
OVCAR-3 ovarian
  TGI: 54.2 µM
MCF7 breast
  TGI: > 100 µM
SF-268 CNS
  TGI: > 100 µM
UACC-257 melanoma
  TGI: 53.7 µM
KM12 colon
  TGI: > 100 µM
HOP-62 NSCLC
  TGI: > 100 µM
HOP-92 NSCLC
  TGI: > 100 µM
COLO 205 colon
  TGI: 38.6 µM

## CC(C)C(NC(=O)OC(C)(C)C)C(=O)N1CCCC1C(=O)OCc1ccccc1 (stereo not drawn) (Boc-Val-Pro-OBn; configuration not given here)
SK-MEL-2 melanoma
  GI50: 46.3 µg/mL
SR leukemia
  GI50: 90.6 µg/mL
